Assay results: patent US20080125493A1, “Use of agomelatine in obtaining medicaments intended for the treatment of periventricular leukomalacia” (LES LABORATOIRES SERVIER, priority 2006, published 2008)

Test system: lesions of the white matter of the brain produced by intracerebral injection of ibotenate
Test: Neuroprotective effects on ibotenate-induced white matter lesions in 5-day-old baby mice
Format: in vivo
Experimental: Immediately after the administration of 10 μg of ibotenate, there are injected by the i.p. route, in a final volume of 5 μl, from 0.005 to 5 mg/kg of agomelatine, 10 mg/kg of fluoxetine used as standard antidepressant control, or the solvent alone. In a second experiment, the i.p. injection following the intracerebral injection of ibotenate is carried out 2 hours, 4 hours or 8 hours later.

COc1ccc2cccc(CCNC(C)=O)c2c1 [agomelatine, N-[2-(7-methoxy-1-naphthyl)ethyl]acetamide]
reduction of the lesions of the white matter (5 mg/kg i.p., co-administration immediately after 10 μg ibotenate intracerebral, 5-day-old mice): 59%
effect on the lesions of the white matter (dose dependence) (0.005 to 5 mg/kg i.p., co-administration immediately after 10 μg ibotenate): dose-dependent reduction of the lesions of the white matter
course of lesion size over time (co-treated concomitantly or after 8 hours, same lesions for first 24 hours, then over the next 4 days): very major regression
neuroprotection with delayed administration (i.p. administration 8 hours after the injection of ibotenate): significant neuroprotection is restored
neuroprotection with delayed administration (i.p. administration between 0 and 4 hours after the injection of ibotenate): decreases

CNCCC(Oc1ccc(C(F)(F)F)cc1)c1ccccc1 (stereo not drawn) [fluoxetine, reference compound]
effect on the lesions of the white matter (10 mg/kg i.p., co-administration immediately after 10 μg ibotenate): No significant effect
